According to patent publication US20240270731A1, “[…]” (ALEBUND PHARMACEUTICALS (HONG KONG) LIMITED, priority 2021, published 2024):

Key:
[1] = test system: uninephrectomied db/db mice; assay: Diabetic nephropathy pharmacodynamic model (uninephrectomied db/db mice); settings: Compound 2 treatment, oral once per day
Method: Housing temperature was maintained at 22-26° C. and humidity at 40%-60%. Mice were allowed to access food and water ad libitum. […] Buprenorphine was applied after surgery.
Two weeks after surgery, db/db mice were randomly assigned into 5 groups. Wild type mice were used for the control animals. […] Compounds were orally administrated once per day for 10 weeks.
At the 5th and 9th week after compound administration, mice were placed in metabolic cages for urine collection. Albumin level was measured for 24 hr albumin excretion calculation. At the 10th week after treatment, the animals were sacrificed for kidney dissection. The kidney was fixed in 10% neutral buffed formalin, then paraffin-embedded for histopathological analysis. Glomerulosclerosis was assessed by evaluating glomerular basement membrane, mesangial expansion, nodular sclerosis and glomerulosclerosis.
Graphpad 8.0 software was used for statistical analysis. The difference between the values were analyzed with one-way ANOVA. The difference between histopathological score was analyzed with Kruskal-Wallis nonparameter test.

[2] = 7-day repeated oral gavage, body weights of ICR mice; type: in vivo; settings: for Weight Gain compared with Day 0: n=10
Text: After 3 days of acclimatization, ICR mice were grouped according to their body weights. The day of grouping is designated as Day 0. […] The animals were weighed and recorded daily.

[3] = test system: rat model of hyperlipidemia induced by high cholesterol diet; assay: Rat model of hyperlipidemia induced by high cholesterol diet (serum TG, NEFA); type: in vivo, Sprague-Dawley rats; settings: for Serum TG / Serum NEFA: mean ± SD, n=6; for Serum TG and NEFA levels compared with the vehicle group: Day 8, both 0.2 mg/kg and 0.6 mg/kg
Text: On the day before the start of the administration (Day 0), the animals were divided into 7 groups based on body weights and serum indicators and were continually fed with the high-cholesterol diet. The treatment groups were orally dosed with either compound or vehicle while continuing the high-cholesterol diet for a total of 1 week. The animals were weighed daily before the treatment, and the compounds were given at 9:00-9:30 in the morning based on the body weight of the day.

[4] = test system: db/db type 2 diabetes model; assay: Pharmacodynamics study on the db/db type 2 diabetes model; settings: for Average daily body weights compared with the vehicle group: Day 10 to Day 15, Compound 2 0.05, 0.2, 1 mg/kg; for Statistical difference (p) of the blood glucose level between treatment group and vehicle group: random blood glucose
Text: 45 db/db mice were evenly divided into 5 groups before the initiation of treatment based on the body weights, serum triglyceride (TG) levels, and random blood glucose levels.
All animals were weighed daily before each dosing and treated daily for 14 consecutive days.
All the data was imported into an Excel file and presented as Mean±SEM. Graphpad Prism 7.0 software was used for data statistical analysis by One-way or Two-way ANOVA, with P<0.05 as the criterion of significant differences.

[5] = test system: rat model of unilateral ureteral obstruction; assay: Renal injury in rat model of unilateral ureteral obstruction; settings: 0.2 mg/kg oral daily, 14 treatment days
Method: Housing temperature was maintained at 20-26° C. and humidity at 40%-60%. Rats were fed with a standard chow and allowed to access food and water ad libitum.
The formulation was prepared twice a week.
Vehicle or compounds were administrated by orally gavage daily. Unilateral ureteral obstruction was performed on the second day of compound treatment. Animals in model group, reference group and compound group underwent urethral ligation under isoflurane anesthesia one hour after receiving compound administration. A flank incision was cut to expose the left ureter, and a 4-0 surgical suture was used to perform two-point ligation to achieve urethral obstruction. Ureter was cut between the two ligation points. Animals in the control group were subjected to the same surgical treatment except the ligation and cut.
Rats were sacrificed after 14 days' compound treatment. The obstructed kidney was weighed and collected for histology. The tissue samples were fixed with formalin, and then paraffin embedded. The embedded tissue was sectioned and stained with hematoxylin & eosin and Masson trichrome to assess kidney structure and fibrosis.
The multiple comparison was analyzed with the Kruskal-Wallis non-parameter test. The Dunn's test was used to compare the difference to the model group.

[6] = 0.2 mg/kg (Aleglitazar: Day 4 and Day 5; Compound 2: throughout the study)
[7] = 1 mg/kg (Aleglitazar: Day 6; Compound 2: Day 4 and 5; Compounds 4 and 10: Day 4 to Day 7)
[8] = Day 0 (day before treatment), group later dosed 0.2 mg/kg oral QD x 7 days
[9] = Day 0 (day before treatment), group later dosed 0.6 mg/kg oral QD x 7 days
[10] = Day 8, 0.2 mg/kg oral QD x 7 days
[11] = Day 8, 0.6 mg/kg oral QD x 7 days

## [2H]C([2H])(Cc1nc(-c2ccccc2)oc1C)Oc1ccc(C[C@H](OC)C(=O)O)c2sccc12 (single isomer, unassigned) [Compound 2]
[1]
  Reduction of urine albumin: More than 50%
[2]; [6]
  Daily average weight gain compared with the vehicle group: no significant difference
[2]; [7]
  Daily average weight gain compared with the vehicle group: significantly higher
[2]; Day 1, 0.2 mg/kg oral QD
  Weight Gain compared with Day 0: 0.45 ± 0.28 g
[2]; Day 1, 1 mg/kg oral QD
  Weight Gain compared with Day 0: 0.4 ± 0.17 g
[2]; Day 2, 0.2 mg/kg oral QD
  Weight Gain compared with Day 0: 1.42 ± 0.22 g
[2]; Day 2, 1 mg/kg oral QD
  Weight Gain compared with Day 0: 1.57 ± 0.26 g
[2]; Day 3, 0.2 mg/kg oral QD
  Weight Gain compared with Day 0: 2.56 ± 0.23 g
[2]; Day 3, 1 mg/kg oral QD
  Weight Gain compared with Day 0: 2.71 ± 0.19 g
[2]; Day 4, 0.2 mg/kg oral QD
  Weight Gain compared with Day 0: 2.96 ± 0.23 g
[2]; Day 4, 1 mg/kg oral QD
  Weight Gain compared with Day 0: 3.61 ± 0.19 g
[2]; Day 5, 0.2 mg/kg oral QD
  Weight Gain compared with Day 0: 3.73 ± 0.34 g
[2]; Day 5, 1 mg/kg oral QD
  Weight Gain compared with Day 0: 3.96 ± 0.29 g
[2]; Day 6, 0.2 mg/kg oral QD
  Weight Gain compared with Day 0: 4.66 ± 0.39 g
[2]; Day 6, 1 mg/kg oral QD
  Weight Gain compared with Day 0: 4.84 ± 0.4 g
[2]; Day 7, 0.2 mg/kg oral QD
  Weight Gain compared with Day 0: 5.08 ± 0.42 g
[2]; Day 7, 1 mg/kg oral QD
  Weight Gain compared with Day 0: 5.44 ± 0.36 g
[3]; [8]
  Serum TG: 4.27 ± 1.61 mmol/L
[3]; [9]
  Serum TG: 4.11 ± 1.10 mmol/L
[3]; [10]
  Serum NEFA: 431.50 ± 151.63 µmol/L
  Serum TG: 1.71 ± 0.72 mmol/L
[3]; [11]
  Serum NEFA: 444.33 ± 119.12 µmol/L
  Serum TG: 1.86 ± 0.99 mmol/L
[4]; Aleglitazar 0.2 mg/kg
  Average daily body weights compared with the vehicle group: significantly higher
[4]; OGTT Day 14, 0 min, 0.05 mpk
  Statistical difference (p) of the blood glucose level between OGTT treatment group and vehicle group: p > 0.05
[4]; OGTT Day 14, 0 min, 0.2 mpk
  Statistical difference (p) of the blood glucose level between OGTT treatment group and vehicle group: p < 0.01
[4]; OGTT Day 14, 0 min, 1 mpk
  Statistical difference (p) of the blood glucose level between OGTT treatment group and vehicle group: p < 0.0001
[4]; OGTT Day 14, 15 min, 0.05 mpk
  Statistical difference (p) of the blood glucose level between OGTT treatment group and vehicle group: p > 0.05
[4]; OGTT Day 14, 15 min, 0.2 mpk
  Statistical difference (p) of the blood glucose level between OGTT treatment group and vehicle group: p > 0.05
[4]; OGTT Day 14, 15 min, 1 mpk
  Statistical difference (p) of the blood glucose level between OGTT treatment group and vehicle group: p < 0.0001
[4]; OGTT Day 14, 30 min, 0.05 mpk
  Statistical difference (p) of the blood glucose level between OGTT treatment group and vehicle group: p > 0.05
[4]; OGTT Day 14, 30 min, 0.2 mpk
  Statistical difference (p) of the blood glucose level between OGTT treatment group and vehicle group: p > 0.05
[4]; OGTT Day 14, 30 min, 1 mpk
  Statistical difference (p) of the blood glucose level between OGTT treatment group and vehicle group: p < 0.05
[4]; OGTT Day 14, 60 min, 0.05 mpk
  Statistical difference (p) of the blood glucose level between OGTT treatment group and vehicle group: p > 0.05
[4]; OGTT Day 14, 60 min, 0.2 mpk
  Statistical difference (p) of the blood glucose level between OGTT treatment group and vehicle group: p < 0.01
[4]; OGTT Day 14, 60 min, 1 mpk
  Statistical difference (p) of the blood glucose level between OGTT treatment group and vehicle group: p < 0.0001
[4]; OGTT Day 14, 120 min, 0.05 mpk
  Statistical difference (p) of the blood glucose level between OGTT treatment group and vehicle group: p > 0.05
[4]; OGTT Day 14, 120 min, 0.2 mpk
  Statistical difference (p) of the blood glucose level between OGTT treatment group and vehicle group: p < 0.05
[4]; OGTT Day 14, 120 min, 1 mpk
  Statistical difference (p) of the blood glucose level between OGTT treatment group and vehicle group: p < 0.001
[4]; Day 0, 0.05 mpk
  Statistical difference (p) of the blood glucose level between treatment group and vehicle group: p > 0.05
[4]; Day 0, 0.2 mpk
  Statistical difference (p) of the blood glucose level between treatment group and vehicle group: p > 0.05
[4]; Day 0, 1 mpk
  Statistical difference (p) of the blood glucose level between treatment group and vehicle group: p > 0.05
[4]; Day 7, 0.05 mpk
  Statistical difference (p) of the blood glucose level between treatment group and vehicle group: p > 0.05
[4]; Day 7, 0.2 mpk
  Statistical difference (p) of the blood glucose level between treatment group and vehicle group: p > 0.05
[4]; Day 7, 1 mpk
  Statistical difference (p) of the blood glucose level between treatment group and vehicle group: p < 0.05
[4]; Day 14, 0.05 mpk
  Statistical difference (p) of the blood glucose level between treatment group and vehicle group: p > 0.05
[4]; Day 14, 0.2 mpk
  Statistical difference (p) of the blood glucose level between treatment group and vehicle group: p < 0.05
[4]; Day 14, 1 mpk
  Statistical difference (p) of the blood glucose level between treatment group and vehicle group: p < 0.0001

## CO[C@@H](Cc1ccc(OCCc2nc(-c3ccccc3)oc2C)c2ccsc12)C(=O)O (single isomer, unassigned) [Compound 4]
[3]; 0.2 mg/kg, T-test, P<0.05
  Serum NEFA compared with Aleglitazar: significantly reduce
[3]
  Serum TG and NEFA levels compared with the vehicle group: significantly reduce

## [2H]c1c([2H])c([2H])c(-c2nc(CCOc3ccc(C[C@H](OC)C(=O)O)c4sccc34)c(C)o2)c([2H])c1[2H] (single isomer, unassigned) [Compound 4]
[2]; [7]
  Daily average weight gain compared with the vehicle group: significantly higher
[2]; Day 1, 1 mg/kg oral QD
  Weight Gain compared with Day 0: 0.35 ± 0.24 g
[2]; Day 2, 1 mg/kg oral QD
  Weight Gain compared with Day 0: 1.45 ± 0.34 g
[2]; Day 3, 1 mg/kg oral QD
  Weight Gain compared with Day 0: 2.75 ± 0.41 g
[2]; Day 4, 1 mg/kg oral QD
  Weight Gain compared with Day 0: 3.71 ± 0.46 g
[2]; Day 5, 1 mg/kg oral QD
  Weight Gain compared with Day 0: 4.26 ± 0.47 g
[2]; Day 6, 1 mg/kg oral QD
  Weight Gain compared with Day 0: 5.36 ± 0.54 g
[2]; Day 7, 1 mg/kg oral QD
  Weight Gain compared with Day 0: 5.91 ± 0.56 g
[3]; [8]
  Serum TG: 4.22 ± 1.71 mmol/L
[3]; [9]
  Serum TG: 4.00 ± 1.71 mmol/L
[3]; [10]
  Serum NEFA: 490.33 ± 113.61 µmol/L
  Serum TG: 2.46 ± 1.18 mmol/L
[3]; [11]
  Serum NEFA: 347.83 ± 113.61 µmol/L
  Serum TG: 1.93 ± 0.58 mmol/L

## [2H]c1cccc([2H])c1-c1nc(CC([2H])([2H])Oc2ccc(C[C@H](OC)C(=O)O)c3sccc23)c(C)o1 (single isomer, unassigned) [Compound 10]
[2]; [7]
  Daily average weight gain compared with the vehicle group: significantly higher
[2]; Day 1, 1 mg/kg oral QD
  Weight Gain compared with Day 0: 0.34 ± 0.17 g
[2]; Day 2, 1 mg/kg oral QD
  Weight Gain compared with Day 0: 1.63 ± 0.41 g
[2]; Day 3, 1 mg/kg oral QD
  Weight Gain compared with Day 0: 2.96 ± 0.37 g
[2]; Day 4, 1 mg/kg oral QD
  Weight Gain compared with Day 0: 3.85 ± 0.38 g
[2]; Day 5, 1 mg/kg oral QD
  Weight Gain compared with Day 0: 4.59 ± 0.39 g
[2]; Day 6, 1 mg/kg oral QD
  Weight Gain compared with Day 0: 5.75 ± 0.39 g
[2]; Day 7, 1 mg/kg oral QD
  Weight Gain compared with Day 0: 6.11 ± 0.53 g

## CO[C@@H](Cc1ccc(OCCc2nc(-c3ccccc3)oc2C)c2ccsc12)C(=O)O [Aleglitazar, aleglitazar, reference compound]
[2]; [6]
  Daily average weight gain compared with the vehicle group: significantly higher
[2]; [7]
  Daily average weight gain compared with the vehicle group: significantly higher
[2]; Day 1, 0.2 mg/kg oral QD
  Weight Gain compared with Day 0: 0.48 ± 0.27 g
[2]; Day 2, 0.2 mg/kg oral QD
  Weight Gain compared with Day 0: 1.66 ± 0.39 g
[2]; Day 2, 1 mg/kg oral QD
  Weight Gain compared with Day 0: 1.64 ± 0.26 g
[2]; Day 3, 0.2 mg/kg oral QD
  Weight Gain compared with Day 0: 2.62 ± 0.42 g
[2]; Day 3, 1 mg/kg oral QD
  Weight Gain compared with Day 0: 2.61 ± 0.51 g
[2]; Day 4, 0.2 mg/kg oral QD
  Weight Gain compared with Day 0: 3.50 ± 0.42 g
[2]; Day 4, 1 mg/kg oral QD
  Weight Gain compared with Day 0: 3.33 ± 0.54 g
[2]; Day 5, 0.2 mg/kg oral QD
  Weight Gain compared with Day 0: 3.92 ± 0.4 g
[2]; Day 5, 1 mg/kg oral QD
  Weight Gain compared with Day 0: 3.86 ± 0.49 g
[2]; Day 6, 0.2 mg/kg oral QD
  Weight Gain compared with Day 0: 4.81 ± 0.37 g
[2]; Day 6, 1 mg/kg oral QD
  Weight Gain compared with Day 0: 4.98 ± 0.52 g
[2]; Day 7, 0.2 mg/kg oral QD
  Weight Gain compared with Day 0: 5.39 ± 0.56 g
[2]; Day 7, 1 mg/kg oral QD
  Weight Gain compared with Day 0: 5.34 ± 0.50 g
[3]; [8]
  Serum TG: 4.24 ± 1.18 mmol/L
[3]; [9]
  Serum TG: 4.09 ± 2.17 mmol/L
[3]; [10]
  Serum NEFA: 706.00 ± 190.15 µmol/L
  Serum TG: 2.86 ± 0.86 mmol/L
[3]; [11]
  Serum NEFA: 327.83 ± 90.73 µmol/L
  Serum TG: 1.47 ± 0.46 mmol/L
[3]
  Serum TG and NEFA levels compared with the vehicle group: significantly reduce
[4]; Day 6 and Day 12, Aleglitazar 0.2 mg/kg, Compound 2 at different dosages
  Serum TG levels compared with the vehicle group: significantly lower
[4]; Aleglitazar 0.2 mg/kg
  Average daily body weights compared with the vehicle group: significantly higher
[4]; OGTT Day 14, 0 min, 0.2 mpk
  Statistical difference (p) of the blood glucose level between OGTT treatment group and vehicle group: p < 0.001
[4]; OGTT Day 14, 15 min, 0.2 mpk
  Statistical difference (p) of the blood glucose level between OGTT treatment group and vehicle group: p < 0.01
[4]; OGTT Day 14, 30 min, 0.2 mpk
  Statistical difference (p) of the blood glucose level between OGTT treatment group and vehicle group: p > 0.05
[4]; OGTT Day 14, 60 min, 0.2 mpk
  Statistical difference (p) of the blood glucose level between OGTT treatment group and vehicle group: p < 0.01
[4]; OGTT Day 14, 120 min, 0.2 mpk
  Statistical difference (p) of the blood glucose level between OGTT treatment group and vehicle group: p < 0.01
[4]; Day 0, 0.2 mpk
  Statistical difference (p) of the blood glucose level between treatment group and vehicle group: p > 0.05
[4]; Day 7, 0.2 mpk
  Statistical difference (p) of the blood glucose level between treatment group and vehicle group: p < 0.05
[4]; Day 14, 0.2 mpk
  Statistical difference (p) of the blood glucose level between treatment group and vehicle group: p < 0.01
[5]
  Total score of renal focal lesions (infract, tubular dilation, tubular obstruction, fibrosis, necrosis) compared with model group: did not achieve statistically significant improvement
